Structures are written as SMILES.

In turn, `CO/C=C(/C(=O)OC)c1ccccc1CO/N=C(C)/C(=N/OC)c1ccc(OCc2cccc(C(F)(F)F)c2)cc1` returned a melting point of 102 to 103 °C.

In the case of `C#CCO/N=C(/C(C)=NOCc1ccccc1C(=COC)C(=O)OC)c1ccc(F)cc1`, the melting point was 91 to 93 °C.

With `CCO/N=C(/C(C)=NOCc1ccccc1C(=NOC)C(=O)OC)c1ccc(Oc2ccc(Cl)cc2)cc1`, the melting point is 90 to 93 °C.

As a reminder, the melting point is the temperature of the solid-liquid transition.
